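Exposure lasted 48 hours, with cells grown in 96-well plates and compounds tested at five concentrations. GI50 = concentration required for 50% inhibition of growth. At the TGI there is no net growth.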
Tests used:
Assay in all cases: growth of human tumour cells (NCI), 48 h
[1] = system: SN12C renal
[2] = system: NCI-H23 lung
[3] = system: M14 melanoma
[4] = system: SK-MEL-2 melanoma
[5] = system: HS 578T breast
[6] = system: SK-MEL-28 melanoma
[7] = system: OVCAR-8 ovarian
[8] = system: LOX IMVI melanoma
[9] = system: OVCAR-3 ovarian
[10] = system: SF-268 CNS

Structure (SMILES) | GI50 [1] [µM] | TGI [1] [µM] | GI50 [2] [µM] | TGI [2] [µM] | GI50 [3] [µM] | TGI [3] [µM] | GI50 [4] [µM] | TGI [4] [µM] | GI50 [5] [µM] | TGI [5] [µM] | GI50 [6] [µM] | TGI [6] [µM] | GI50 [7] [µM] | TGI [7] [µM] | GI50 [8] [µM] | TGI [8] [µM] | GI50 [9] [µM] | TGI [9] [µM] | GI50 [10] [µM] | TGI [10] [µM]
COc1ncc(-c2ccc3ncnc(Nc4cccc(Cl)c4)c3c2)cc1NS(C)(=O)=O | 1.76 | 31.8 | 1.62 | 8.69 | 2.81 | 19.2 | 2.27 | 8.25 | 0.852 | 9.52 | 1.81 | 41.3 | 3.75 | > 100 | 1.68 | 11.1 | 1.17 | 7.7 | 1.99 | 19.2
COc1ccc(C(=O)c2cc(C)c(OC)c(C)c2)c(OC)c1OC(=O)C(Cl)Cl | 0.0956 | > 100 | 0.0681 | > 100 | 0.0229 | > 100 | 0.132 | > 100 | 0.0294 | 73.4 | 0.0632 | > 100 | 0.0456 | > 100 | 0.0455 | > 100 | 0.0353 | – | 0.198 | > 100
CCSc1nc(N)c(C#N)c(-c2ccc(OC)c(OC)c2)c1C#N | 15.1 | > 50 | 40.3 | > 50 | 18.7 | 45.7 | 13.3 | > 50 | 13.1 | 43.7 | > 50 | > 50 | 15.5 | 45.1 | 14.9 | 48.2 | 26 | > 50 | 11.1 | 35.1
COc1ccc(/C=C\c2cc(OC)c(OC)c(OC)c2)cc1N/C=C\C(=O)c1c[nH]c2ccccc12 | 0.0224 | > 100 | < 0.01 | > 100 | < 0.01 | 47.8 | < 0.01 | 20.3 | < 0.01 | > 100 | 1.59 | > 100 | < 0.01 | > 100 | < 0.01 | > 100 | < 0.01 | < 0.01 | < 0.01 | > 100
COc1cc(NC(=O)c2cc3ccccc3cc2O)c(OC)cc1Cl | 1.87 | 6.36 | 1.59 | 7.05 | 2.74 | > 100 | 2.74 | 6.95 | 2.11 | 8.85 | 2.86 | 10.7 | 2.84 | > 32.8 | 2.47 | > 100 | 1.41 | 4.1 | 3.42 | 14.4
Cn1c(=S)c2[nH]c(SCc3cccnc3)nc2n(C)c1=O | – | > 100 | – | > 100 | – | > 100 | – | > 100 | – | > 100 | – | > 100 | – | > 100 | – | > 100 | – | > 100 | – | > 100
COC(=O)C(Br)(C(=O)OC)C(Br)C(Br)C(Br)c1ccccc1 (stereo not drawn) | 2.16 | 5.3 | 5.78 | 13.9 | 2.47 | 6.2 | 14.4 | 27.8 | 6.25 | 15 | 2.12 | 4.99 | 3.03 | 8.15 | 1.85 | 3.66 | 1.72 | 3.11 | 5.5 | 16.5
CCN1C(=O)N[C@H]2[C@@H]3NC(=O)c4ccc(Cl)n4[C@@H]3C[C@]21O | 0.42 | 9.13 | 0.531 | 4.52 | 0.352 | 2.66 | 0.301 | 1.21 | 0.578 | 13.2 | 0.311 | 3.03 | 0.533 | 9.01 | 0.279 | 1.3 | 0.542 | 10.3 | 0.502 | 52.3
COc1ccc(-n2nc(C(=O)NCC(=O)Nc3nc4cc(OC)ccc4s3)c3ccccc3c2=O)cc1 | 3.45 | > 40.7 | 1.32 | 9 | 2.37 | > 42.9 | 1.69 | 5.12 | 2.54 | > 100 | 0.631 | 2.3 | 0.533 | 2 | 0.413 | 1.97 | 0.85 | – | 0.949 | 5.01
Clc1ccc2c(NCCNc3nc(N4CCCCC4)nc4ccccc34)ccnc2c1 | 2.13 | 6.84 | 4.07 | 18.4 | 1.82 | 3.61 | 1.79 | 3.83 | 3.04 | 8.39 | 1.86 | 3.52 | 2.17 | 5.18 | 1.58 | 3.36 | 1.75 | 3.65 | 2.39 | 7.33
O=C1c2ccccc2-c2c1c1ccc3ccccc3c1n2-c1ccccc1 | 20.5 | 50 | 56.8 | > 100 | 94.1 | > 100 | > 100 | > 100 | 18 | 39.2 | > 100 | > 100 | 23 | 54.7 | 39 | > 100 | 24.6 | 57.6 | 20 | 52.3
Nc1n[nH]c2cc(F)c([C@@H]3Nc4c(F)cc5[nH]ncc5c4[C@H]4C5CCC(C5)[C@@H]34)cc12 (stereo partly drawn) | 0.187 | 9.46 | 0.158 | 5.76 | 0.107 | 5.83 | 0.817 | 9.37 | 0.117 | 2.95 | 3.75 | 13.4 | 0.136 | 15.2 | 0.144 | 4.41 | 0.105 | 3.73 | 0.306 | 4.49
COc1ccccc1C(=O)Nc1ccc(Cl)c(C(=O)OC(C)C)c1 | – | > 100 | – | 28.1 | – | > 93.3 | – | > 76.8 | – | > 100 | – | > 94.5 | – | > 100 | – | > 62.3 | – | > 65.4 | – | > 95.2
COc1ccc2c(ccc3oc([N+](=O)[O-])cc32)c1 | 0.274 | 7.03 | 0.203 | 0.605 | 0.0454 | 0.186 | 0.107 | 0.292 | 0.301 | 1.58 | 0.118 | 0.323 | 0.18 | 1.2 | 0.0551 | 0.312 | 0.225 | 0.57 | 0.176 | 1.87
COc1ccccc1CNC(=O)/C=C/c1ccc(O)c(O)c1 | 68.6 | > 100 | 77.6 | > 100 | 72.4 | > 100 | > 100 | > 100 | > 100 | > 100 | 89 | > 100 | 75.7 | > 100 | 26.3 | > 100 | 67.3 | > 100 | 90.7 | > 100

Source: PubChem BioAssay (NCI)
